Like-named read-outs stand apart in the source and are kept apart here. Numbered stars: 1 amine (or outer) side, 2 acyl side, 3 side chain; on linkers, the order of the positions; unused ones are H or OH. Square brackets hold non-standard residues; d marks the D form. Side chains are listed from the residue outwards. Peptide text beside a SMILES is read from it. * marks the point of attachment. C20 diacid = O=C(O)CCCCCCCCCCCCCCCCCCC(=O)*; γGlu = O=C(O)[C@H](CCC(=O)[*:2])N[*:1]; AEEA = NCCOCCOCC(=O)O; Aib = CC(C)(N)C(=O)O
Tests used:
[1] = Turbidity of crude library peptides (absorbance at 600 nm); type: physicochemical; conditions: Physical stability of peptides
In short: (§1)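 Turbidity is the absorbance at 600 nm, taken before heating. Fibril signal is the mean ThT emission at 480 nm (450 nm excitation), read every 10 min over 72 h at 40° C with 700 rpm shaking between reads. Peptides at 267 μM, pH 4.0 acetate or pH 7.0 phosphate buffer (50 mM), 4 μM ThT final.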

[2] = Fibril formation of crude library peptides (Thioflavin T); type: physicochemical; set-up: key: average ThT fluorescence emission at 480 nm (ex 450 nm), raw units; conditions: Physical stability of peptides
In short: as §1

GLP1R = GLP1R (Homo sapiens, UniProt P43220); assay: hGLP1R potency, cAMP accumulation in CHO-K1 cells stably overexpressing hGLP1R; type: cell-based; set-up: host or cells: CHO-K1; conditions: for Selectivity: SCTR EC50/GLP1R EC50 ratio; for EC50: cAMP accumulation; for SCTR EC50/GLP1R EC50 ratio: cAMP accumulation in CHO-K1 cells
In short: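 EC50 derives from variable-slope nonlinear regression of cAMP HTRF signal, with purified peptides tested as 11 three-fold dilutions in duplicate. Assay: hGLP1R-overexpressing CHO-K1 cells, 0.5 mM IBMX, 0.05% casein in DPBS, 30 min room-temperature stimulation, GLP-1(7-36) as reference agonist.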

SCTR = SCTR (Homo sapiens, UniProt P47872); assay: hSCTR potency, cAMP accumulation in CHO-K1 cells stably overexpressing hSCTR; type: cell-based; set-up: alternatively Euroscreen ES-712-AF; FAST-0161L; host or cells: CHO-K1; conditions: cAMP accumulation
In short: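 EC50 derived from variable-slope nonlinear regression on 11-point, 3-fold series run in duplicate (crude peptides: 5 points, 10-fold, n=1). Compound stimulation lasted 30 min at room temperature in casein/IBMX-containing DPBS (0.05%, 0.5 mM), 2000 cells/well; cAMP detected by time-resolved FRET after one hour.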

[3] = CHO-K1 cells overexpressing hGLP1R, read-out: pEC50 hGLPR1 (converted)
[4] = CHO-K1 cells overexpressing hSCTR, read-out: pEC50 hSCTR (converted)
[5] = CHO-K1 cells overexpressing hGLP1R, read-out: hGLP1R pEC50 (converted)
[6] = selectivity for hGLP1R over hSCTR
[7] = CHO-K1 cells overexpressing hSCTR, read-out: hSCTR pEC50 (converted)

GLP1R, sequence (P43220 24-463): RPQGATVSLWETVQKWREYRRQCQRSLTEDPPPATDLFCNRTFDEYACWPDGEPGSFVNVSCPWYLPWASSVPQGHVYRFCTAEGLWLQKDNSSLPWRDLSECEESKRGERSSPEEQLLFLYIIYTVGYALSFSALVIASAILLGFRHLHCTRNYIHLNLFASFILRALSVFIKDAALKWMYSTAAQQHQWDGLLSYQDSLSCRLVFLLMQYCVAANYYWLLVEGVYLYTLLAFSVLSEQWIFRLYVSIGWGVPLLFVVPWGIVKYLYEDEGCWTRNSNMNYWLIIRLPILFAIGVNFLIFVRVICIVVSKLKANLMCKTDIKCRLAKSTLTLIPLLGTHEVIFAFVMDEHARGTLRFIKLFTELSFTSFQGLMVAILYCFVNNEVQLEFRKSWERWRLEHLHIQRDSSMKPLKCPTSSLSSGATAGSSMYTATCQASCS
SCTR, sequence (P47872 23-440): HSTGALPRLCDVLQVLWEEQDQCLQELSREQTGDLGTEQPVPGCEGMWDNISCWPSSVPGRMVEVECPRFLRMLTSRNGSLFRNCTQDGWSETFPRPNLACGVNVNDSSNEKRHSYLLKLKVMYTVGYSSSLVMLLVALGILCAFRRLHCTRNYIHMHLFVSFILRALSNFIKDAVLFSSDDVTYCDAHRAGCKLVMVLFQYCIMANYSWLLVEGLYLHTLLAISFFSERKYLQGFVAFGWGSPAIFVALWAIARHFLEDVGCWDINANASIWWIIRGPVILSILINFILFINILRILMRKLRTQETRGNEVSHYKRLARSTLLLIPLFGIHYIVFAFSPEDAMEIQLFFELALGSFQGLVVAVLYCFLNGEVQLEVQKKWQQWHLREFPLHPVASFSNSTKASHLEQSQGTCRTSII

| SMILES | Turbidity (pH 7) [1] | Fibril formation [2] | Selectivity (GLP1R) | EC50 (GLP1R; [3]) [nM] | EC50 (SCTR; [4]) [nM] | EC50 (GLP1R; [5]) [nM] | SCTR EC50/GLP1R EC50 ratio (GLP1R; [6]) | EC50 (SCTR; [7]) [nM] | EC50 (GLP1R; CHO-K1 cells stably overexpressing hGLP1R, read-out: hGLP1R potency (pEC50) (converted)) [nM] | SCTR EC50/GLP1R EC50 ratio (GLP1R; selectivity ratio, hSCTR vs hGLP1R) | EC50 (SCTR; CHO-K1 cells stably overexpressing hSCTR, read-out: hSCTR potency (pEC50) (converted)) [nM] |
| --- | --- | --- | --- | --- | --- | --- | --- | --- | --- | --- | --- |
| CC(C)C[C@H](NC(=O)[C@H](Cc1ccccc1)NC(=O)[C@H](CCCNC(=N)N)NC(=O)[C@H](CCC(N)=O)NC(=O)[C@H](C)NC(=O)[C@H](C)NC(=O)[C@H](C)NC(=O)[C@@H](NC(=O)[C@H](CCC(=O)O)NC(=O)[C@H](CCCCNC(=O)COCCOCCNC(=O)COCCOCCNC(=O)CC[C@H](NC(=O)CCCCCCCCCCCCCCCCCCC(=O)O)C(=O)O)NC(=O)[C@H](CC(C)C)NC(=O)[C@H](Cc1ccccc1)NC(=O)[C@H](CO)NC(=O)[C@@H](NC(=O)[C@H](CC(=O)O)NC(=O)[C@H](CO)NC(=O)[C@@H](NC(=O)[C@H](Cc1ccccc1)NC(=O)[C@@H](NC(=O)CNC(=O)[C@H](CCC(=O)O)NC(=O)C(C)(C)NC(=O)[C@@H](N)Cc1c[nH]cn1)[C@@H](C)O)[C@@H](C)O)C(C)C)[C@@H](C)O)C(=O)N[C@@H](CCC(=O)O)C(=O)N[C@@H](Cc1c[nH]cn1)C(=O)N[C@@H](CC(C)C)C(=O)N[C@H](C(N)=O)C(C)C [compound 44] (H-H[Aib]EGTFTSDVSFLK([AEEA-AEEA-γGlu-C20 diacid])ETAAAQRFLEHLV-NH2) | 0.08 | 10742 | 114525 | 0.0316 | 3980 |  |  |  |  |  |  |
| CC(C)C[C@H](NC(=O)[C@H](Cc1ccccc1)NC(=O)[C@H](CCCNC(=N)N)NC(=O)[C@H](CCC(N)=O)NC(=O)[C@H](CCC(N)=O)NC(=O)[C@H](C)NC(=O)[C@H](C)NC(=O)[C@H](CCC(=O)O)NC(=O)[C@H](CCC(=O)O)NC(=O)[C@H](CCCCNC(=O)COCCOCCNC(=O)COCCOCCNC(=O)CC[C@H](NC(=O)CCCCCCCCCCCCCCCCCCC(=O)O)C(=O)O)NC(=O)[C@H](CC(C)C)NC(=O)[C@@H](NC(=O)[C@H](CO)NC(=O)[C@@H](NC(=O)[C@H](CC(=O)O)NC(=O)[C@H](CO)NC(=O)[C@@H](NC(=O)[C@H](Cc1ccccc1)NC(=O)[C@@H](NC(=O)CNC(=O)[C@H](CCC(=O)O)NC(=O)C(C)(C)NC(=O)[C@@H](N)Cc1c[nH]cn1)[C@@H](C)O)[C@@H](C)O)C(C)C)C(C)C)C(=O)N[C@@H](CCC(=O)O)C(=O)N[C@@H](Cc1c[nH]cn1)C(=O)N[C@@H](CC(C)C)C(=O)N[C@H](C(N)=O)C(C)C [compound 90] (H-H[Aib]EGTFTSDVSVLK([AEEA-AEEA-γGlu-C20 diacid])EEAAQQRFLEHLV-NH2) | 0.09 | 5668 |  |  |  | 0.0316 | 51322 | 1580 |  |  |  |
| CC[C@H](C)[C@H](NC(=O)[C@H](Cc1ccccc1)NC(=O)[C@H](CCCNC(=N)N)NC(=O)[C@H](CCC(N)=O)NC(=O)[C@H](CC(C)C)NC(=O)[C@H](C)NC(=O)[C@H](C)NC(=O)CNC(=O)[C@H](CCC(=O)O)NC(=O)[C@H](CC(C)C)NC(=O)[C@H](CC(C)C)NC(=O)CNC(=O)[C@H](CO)NC(=O)[C@@H]1CCCN1C(=O)[C@H](CC(=O)O)NC(=O)[C@H](CO)NC(=O)[C@@H](NC(=O)[C@H](Cc1ccccc1)NC(=O)[C@@H](NC(=O)CNC(=O)[C@H](CCC(=O)O)NC(=O)C(C)(C)NC(=O)[C@@H](N)Cc1c[nH]cn1)[C@@H](C)O)[C@@H](C)O)C(=O)N[C@@H](CCC(N)=O)C(=O)N[C@@H](Cc1c[nH]c2ccccc12)C(=O)N[C@@H](CC(C)C)C(=O)N[C@H](C(N)=O)C(C)C [compound 123] (H-H[Aib]EGTFTSDPSGLLEGAALQRFIQWLV-NH2) | 0.11 | 3764 |  |  |  | 10 | 671 | 6310 |  |  |  |
| CC(C)C[C@H](NC(=O)[C@H](Cc1ccccc1)NC(=O)[C@H](CCCNC(=N)N)NC(=O)[C@H](CCC(N)=O)NC(=O)[C@H](CCC(N)=O)NC(=O)[C@H](C)NC(=O)[C@H](C)NC(=O)[C@H](CCC(=O)O)NC(=O)[C@H](CCC(=O)O)NC(=O)[C@H](CCCCNC(=O)COCCOCCNC(=O)COCCOCCNC(=O)CC[C@H](NC(=O)CCCCCCCCCCCCCCCCCCC(=O)O)C(=O)O)NC(=O)[C@H](CC(C)C)NC(=O)[C@H](Cc1ccc(O)cc1)NC(=O)[C@H](CO)NC(=O)[C@@H](NC(=O)[C@H](CC(=O)O)NC(=O)[C@H](CO)NC(=O)[C@@H](NC(=O)[C@H](Cc1ccccc1)NC(=O)[C@@H](NC(=O)CNC(=O)[C@H](CCC(=O)O)NC(=O)C(C)(C)NC(=O)[C@@H](N)Cc1c[nH]cn1)[C@@H](C)O)[C@@H](C)O)C(C)C)C(=O)N[C@@H](CCC(=O)O)C(=O)N[C@@H](Cc1c[nH]cn1)C(=O)N[C@@H](CC(C)C)C(=O)N[C@H](C(N)=O)C(C)C [compound 47] (H-H[Aib]EGTFTSDVSYLK([AEEA-AEEA-γGlu-C20 diacid])EEAAQQRFLEHLV-NH2) | 0.08 | 13638 | 17543 | 0.0158 | 251 |  |  |  |  |  |  |
| CC(C)C[C@H](NC(=O)[C@H](Cc1ccccc1)NC(=O)[C@H](CCCNC(=N)N)NC(=O)[C@H](CCC(N)=O)NC(=O)[C@H](CCC(N)=O)NC(=O)[C@H](C)NC(=O)[C@H](C)NC(=O)[C@H](CCC(=O)O)NC(=O)[C@H](CCC(=O)O)NC(=O)[C@H](CCCCNC(=O)COCCOCCNC(=O)COCCOCCNC(=O)CC[C@H](NC(=O)CCCCCCCCCCCCCCCCCCC(=O)O)C(=O)O)NC(=O)[C@H](CC(C)C)NC(=O)[C@@H](NC(=O)[C@H](CO)NC(=O)[C@@H](NC(=O)[C@H](CC(=O)O)NC(=O)[C@H](CO)NC(=O)[C@@H](NC(=O)[C@H](Cc1ccccc1)NC(=O)[C@@H](NC(=O)CNC(=O)[C@H](CCC(=O)O)NC(=O)C(C)(C)NC(=O)[C@@H](N)Cc1c[nH]cn1)[C@@H](C)O)[C@@H](C)O)C(C)C)[C@@H](C)O)C(=O)N[C@@H](CCC(=O)O)C(=O)N[C@@H](Cc1c[nH]cn1)C(=O)N[C@@H](CC(C)C)C(=O)N[C@H](C(N)=O)C(C)C [compound 39] (H-H[Aib]EGTFTSDVSTLK([AEEA-AEEA-γGlu-C20 diacid])EEAAQQRFLEHLV-NH2) | 0.08 | 9592 | 17346 | 0.0158 | 316 |  |  |  |  |  |  |
| CC(C)C[C@H](NC(=O)[C@H](CCC(=O)O)NC(=O)[C@H](CCCCNC(=O)COCCOCCNC(=O)COCCOCCNC(=O)CC[C@H](NC(=O)CCCCCCCCCCCCCCCCCCC(=O)O)C(=O)O)NC(=O)[C@H](CC(C)C)NC(=O)[C@H](CCCNC(=N)N)NC(=O)[C@H](CO)NC(=O)[C@@H](NC(=O)[C@H](CC(=O)O)NC(=O)[C@H](CO)NC(=O)[C@@H](NC(=O)[C@H](Cc1ccccc1)NC(=O)[C@@H](NC(=O)CNC(=O)[C@H](CCC(=O)O)NC(=O)C(C)(C)NC(=O)[C@@H](N)Cc1c[nH]cn1)[C@@H](C)O)[C@@H](C)O)C(C)C)C(=O)N[C@@H](C)C(=O)N[C@@H](C)C(=O)N[C@@H](C)C(=O)N[C@@H](CCC(N)=O)C(=O)N[C@@H](CCCNC(=N)N)C(=O)N[C@@H](Cc1ccccc1)C(=O)N[C@@H](CC(C)C)C(=O)N[C@@H](CCC(=O)O)C(=O)N[C@@H](Cc1c[nH]cn1)C(=O)N[C@@H](CC(C)C)C(=O)N[C@H](C(N)=O)C(C)C [compound 9] (H-H[Aib]EGTFTSDVSRLK([AEEA-AEEA-γGlu-C20 diacid])ELAAAQRFLEHLV-NH2) | 0.08 | 10378 | 13668 | 0.0631 | 1000 |  |  |  |  |  |  |
| CC[C@H](C)[C@H](NC(=O)[C@H](Cc1ccccc1)NC(=O)[C@H](CCCNC(=N)N)NC(=O)[C@H](CCC(N)=O)NC(=O)[C@H](CC(C)C)NC(=O)[C@H](C)NC(=O)[C@H](C)NC(=O)CNC(=O)[C@H](CCC(=O)O)NC(=O)[C@H](CC(C)C)NC(=O)[C@H](CC(C)C)NC(=O)[C@@H](NC(=O)[C@H](CO)NC(=O)[C@H](Cc1ccc(O)cc1)NC(=O)[C@H](CC(=O)O)NC(=O)[C@H](CO)NC(=O)[C@@H](NC(=O)[C@H](Cc1ccccc1)NC(=O)[C@@H](NC(=O)CNC(=O)[C@H](CCC(=O)O)NC(=O)C(C)(C)NC(=O)[C@@H](N)Cc1c[nH]cn1)[C@@H](C)O)[C@@H](C)O)C(C)C)C(=O)N[C@@H](CCC(N)=O)C(=O)N[C@@H](Cc1c[nH]c2ccccc12)C(=O)N[C@@H](CC(C)C)C(=O)N[C@H](C(N)=O)C(C)C [compound 198] (H-H[Aib]EGTFTSDYSVLLEGAALQRFIQWLV-NH2) | 0.33 | 257659 |  |  |  |  |  |  | 0.0251 | 185 | 5.01 |
